Columns and labels:
Pythium ultimum = assay: Mycelial growth test; assay type: cell-based; conditions: PU; for Percent Fungus Growth Inhibition: 72 hours; for inhibition at 5 ppm / inhibition at 10 ppm / inhibition at 20 ppm / inhibition at 40 ppm: Globisporangium ultimum, 72 h, read-out: Percent Fungus Growth Inhibition
[1] = test system: Pythium ultimum and Rhizoctonia solani; assay: Soil/seed treatment, cucumber damping-off complex; assay type: in vivo; conditions: 150 ppm suspension, 3.75 to 3.8 mg per pot
Method: Containers having a volume of about 0.25 l. were 2/3 filled with topsoil and 25 cucumber c.v. [Straight Eight` seeds deposited on the soil surface of each pot. A suspension containing 150 ppm of the test chemical was poured over the seeds and into the soil in sufficient quantity to provide 3.75 to 3.8 mg active ingredient per pot.
Fungi used in this test were Pythium ultimum and Rhizoctonia solani. These fungi were each grown on potato dextrose agar for three to six days. The agar plus mycelium was then minced in a blender with water and 10 ml of the resulting slurry of minced mycelium poured over the seeds.
Following inoculation approximately 15 mm of topsoil was spread over the seeds, the container capped and incubated at 4° C. in darkness for three days, then transferred to a greenhouse (27° C.) for 10-14 days, at which time stand counts were made. Captan was used as a standard for comparison. Based on stand counts on Efficacy Index was calculated for each test chemical as follows: [formula]

Uromyces phaseoli [2] = conditions: in vivo
Uromyces phaseoli [3] = conditions: in vivo; remark: listed apart in the source
Erysiphe polygoni = conditions: in vivo
Cercospora beticola [4] = conditions: in vivo
Fusarium solani = assay: Soil treatment, bean root rot; assay type: in vivo; conditions: 150 ppm suspension, 3.8 mg active per pot; for pest or weed control at 150 ppm, 3.8 mg/pot: Fusarium solani, soil, 336 h, read-out: Percent Disease Control, seed/soil, bean root rot
Method: In a similar manner the soil around a bean seedling was drenched with a sufficient amount of 150 ppm suspension of test chemical to provide 3.8 mg active per pot. Twenty-four hours later the soil was inoculated with a suspension of minced mycelium of Fusarium solani. The inoculated plants were then placed in a greenhouse, evaluated after fourteen days, and percent control of root rot damage calculated. The results, reported in Table III, indicate only a few of the compounds tested are effective in treating Bean Root Rot but that these provide a high degree of control.

Cercospora beticola [5] = assay: whole plant or invertebrate; conditions: in Beta vulgaris, foliar, 24 h, read-out: Percent Disease Control, curative, sugar beet leaf spot

| Molecule | Percent Fungus Growth Inhibition (Pythium ultimum; 5 ppm) | Percent Fungus Growth Inhibition (Pythium ultimum; 10 ppm) | Percent Fungus Growth Inhibition (Pythium ultimum; 20 ppm) | Percent Fungus Growth Inhibition (Pythium ultimum; 40 ppm) | Efficacy Index, seed/soil, cucumber damping-off complex [1] | Percent Disease Control, curative, bean rust (Uromyces phaseoli [2]) | Percent Disease Control, foliar, bean rust (Uromyces phaseoli [3]) | Percent Disease Control, curative, bean powdery mildew (Erysiphe polygoni) | Percent Disease Control, curative, sugar beet leaf spot (Cercospora beticola [4]) | Percent Disease Control, seed/soil, bean root rot (Fusarium solani) | inhibition at 5 ppm (Pythium ultimum; 5 ppm) | inhibition at 10 ppm (Pythium ultimum; 10 ppm) | inhibition at 20 ppm (Pythium ultimum; 20 ppm) | inhibition at 40 ppm (Pythium ultimum; 40 ppm) | pest or weed control at 150 ppm, 3.8 mg/pot (Fusarium solani) | pest or weed control at 150 ppm (Cercospora beticola [5]) |
| --- | --- | --- | --- | --- | --- | --- | --- | --- | --- | --- | --- | --- | --- | --- | --- | --- |
| 3-chloro-5-(bromophenoxy)-4H-1,2,6-thiadiazin-4-one [Compound 33] | 69% | 87% | 96% | 100% | 0 | 0% | 100% | 95% | 0% | 95% | – | – | – | – | – | – |
| 3-chloro-5-[methylaminocarbonyloxy)phenoxyl]-4H-1,2,6-thiadiazin-4-one [Compound 36] | 0% | 42% | 100% | 100% | 13 | 0% | 100% | 0% | – | – | – | – | – | – | – | – |
| Cc1ccc(Oc2nsnc(Cl)c2=O)c(C)c1 [Compound 23, 3-chloro-5-(2,4-dimethylphenoxy)-4H--1,2,6-thiadiazin-4-one] | – | – | – | – | – | – | – | – | – | – | 62% | 69% | 71% | 100% | 0% | 100% |
| Cc1cccc(C)c1Oc1nsnc(Cl)c1=O [Compound 24, 3-chloro-5-(2,6-dimethylphenoxy)-4H--1,2,6-thiadiazin-4-one] | – | – | – | – | – | – | – | – | – | – | 0% | 47% | 64% | 100% | 0% | 50% |
| Cc1cc(C)cc(Oc2nsnc(Cl)c2=O)c1 [Compound 25, 3-chloro-5-(3,5-dimethylphenoxy)-4H--1,2,6-thiadiazin-4-one] | – | – | – | – | – | – | – | – | – | – | 0% | 47% | 100% | 100% | 0% | 50% |
| Nc1ccc(Oc2nsnc(Cl)c2=O)cc1 [Compound 26, 5-(4-aminophenoxy)-3-chloro-4H--1,2,6-thiadiazin-4-one] | – | – | 13% | – | – | – | – | – | – | – | 0% | 0% | – | 100% | 0% | 95% |
| CNC(=O)Nc1ccc(Oc2nsnc(Cl)c2=O)cc1 [Compound 28, 3-chloro-5-[4-(3-methylureido)-phenoxy]-4H--1,2,6-thiadiazin-4-one] | – | – | – | – | – | – | – | – | – | – | 0% | 80% | 91% | 100% | 95% | 0% |
| O=C(Nc1ccccc1)Nc1ccc(Oc2nsnc(Cl)c2=O)cc1 [Compound 29, 3-chloro-5-[4-(3-phenylureido)-phenoxy]-4H--1,2,6-thiadiazin-4-one] | – | – | – | – | – | – | – | – | – | – | 0% | 0% | 0% | 0% | 0% | 95% |
| O=c1c(Cl)nsnc1Oc1c(Cl)cc(Cl)cc1Cl [Compound 30, 3-chloro-5-(2,4,6-trichlorophenoxy)-4H--1,2,6-thiadiazin-4-one] | – | – | – | – | – | – | – | – | – | – | 20% | 71% | 96% | 100% | 0% | 0% |
| O=c1c(Cl)nsnc1Oc1c(Cl)c(Cl)c(Cl)c(Cl)c1Cl [Compound 31, 3-chloro-5-(pentachlorophenoxy)-4H--1,2,6-thiadiazine-4-one] | – | – | – | – | – | – | – | – | – | – | 0% | 0% | 0% | 0% | 0% | 0% |
| O=c1c(Cl)nsnc1Oc1cccc2ccccc12 [Compound 32, 3-chloro-5(1-naphthoxy)-4H-1,2,6-thiadiazin-4-one] | – | – | – | – | – | – | – | – | – | – | 73% | 73% | 100% | 100% | 0% | 90% |
| O=c1c(Cl)nsnc1Oc1ccccc1Br [Compound 34, 3-chloro-5-(2-bromophenoxy)-4H-1,2,6,-thiadiazin-4-one] | – | – | – | – | – | – | – | – | – | – | 0% | 64% | 87% | 100% | 0% | 0% |
| CC(=O)Nc1cccc(Oc2nsnc(Cl)c2=O)c1 [Compound 42, 3-[(3-N--acetylamino)-phenoxy]-5-chloro-4H--1,2,6-thiadiazin-4-one] | – | – | – | – | – | – | – | – | – | – | 0% | 42% | 100% | 100% | 90% | 0% |
| CC(=O)Nc1ccccc1Oc1nsnc(Cl)c1=O [Compound 43, 3-[(2-acetylamino)-phenoxy]-5-chloro-4H--1,2,6-thiadiazin-4-one] | – | – | – | – | – | – | – | – | – | – | 0% | 0% | 0% | 0% | 0% | 90% |
| O=c1c(Cl)nsnc1Oc1cccc(C(F)(F)F)c1 [Compound 44, 3-chloro-5-[(3-trifluoromethyl)phenoxy]-4H--1,2,6-thiadiazin-4-one] | – | – | – | – | – | – | – | – | – | – | 100% | 100% | 100% | 100% | 90% | 0% |
| O=C(O)Cc1ccccc1Oc1nsnc(Cl)c1=O [Compound 45, 3-(2-carboxymethylphenoxy)-5-chloro-4H--1,2,6-thiadiazin-4-one] | – | – | – | – | – | – | – | – | – | – | 0% | 42% | 69% | 100% | 90% | 90% |
| CC(=O)c1ccc(Oc2nsnc(Cl)c2=O)cc1 [Compound 47, 3-(4-acetylphenoxy)-5-chloro-4H--1,2,6-thiadiazin-4-one] | – | – | – | – | – | – | – | – | – | – | 71% | 100% | 100% | 100% | 95% | 90% |
| CC(=O)c1ccccc1Oc1nsnc(Cl)c1=O [Compound 49, 3-(2-acetylphenoxy)-5-chloro-4H--1,2,6-thiadiazin-4-one] | – | – | – | – | – | – | – | – | – | – | 47% | 87% | 96% | 100% | 0% | 0% |
| O=C(O)c1ccc(Oc2nsnc(Cl)c2=O)cc1 [Compound 50, 3-(4-carboxyphenoxy)-5-chloro-4H--1,2,6-thiadiazin-4-one] | – | – | – | – | – | – | – | – | – | – | 20% | 0% | 47% | 100% | 0% | 50% |
| Cc1cc(Oc2nsnc(Cl)c2=O)ccc1Cl [Compound 54, 3-chloro-5-(4-chloro-3-methylphenoxy)-4H--1,2,6-thiadiazin-4-one] | – | – | – | – | – | – | – | – | – | – | 42% | 60% | 71% | 87% | 0% | 0% |
| Cc1cc(Cl)ccc1Oc1nsnc(Cl)c1=O [Compound 55, 3-chloro-5-(4-chloro-2-methylphenoxy)-4H--1,2,6-thiadiazin-4-one] | – | – | – | – | – | – | – | – | – | – | 42% | 64% | 33% | 47% | 0% | 95% |
| Cc1ccc(Oc2nsnc(Cl)c2=O)c(Br)c1 [Compound 57, 3-[(2-bromo-4-methyl)-phenoxy]-5-chloro-4H--1,2,6-thiadiazin-4-one] | – | – | – | – | – | – | – | – | – | – | 42% | 60% | 100% | 100% | 0% | 90% |
| Cc1cc(Cl)c(Oc2nsnc(Cl)c2=O)cc1C [Compound 58, 3-chloro-5-[(2-chloro-4,5-dimethyl)phenoxy]-4H--1,2,6-thiadiazin-4-one] | – | – | – | – | – | – | – | – | – | – | 13% | 24% | 0% | 13% | 0% | 0% |
| Cc1cc(Oc2nsnc(Cl)c2=O)cc(C)c1Cl [Compound 59, 3-chloro-5-[(4-chloro-3,5-dimethyl)phenoxy]-4H--1,2,6-thiadiazin-4-one] | – | – | – | – | – | – | – | – | – | – | 0% | 0% | 0% | 29% | 0% | 0% |
| Cc1cc(Oc2nsnc(Cl)c2=O)cc(C)c1Br [Compound 60, 3-[(4-bromo-3,5-dimethyl)-phenoxy]-5-chloro-4H--1,2,6-thiadiazin-4-one] | – | – | – | – | – | – | – | – | – | – | 9% | 0% | 0% | 13% | 0% | 0% |

— patent US4450269A, “Mono-5-substituted-3-chloro-4H-1,2,6-thiadiazin-4-one antifungal agents” (FMC Corporation, priority 1980, dated 1984)
